Laboratory results reported in patent US20220041578A1, “ISOINDOLINE COMPOUND, AND PREPARATION METHOD, PHARMACEUTICAL COMPOSITION, AND APPLICATION OF ISOINDOLINE COMPOUND” (Shanghai Institute of Meteria Medica, Chinese Academy of …, priority 2018, published 2022).
pIC50: −log10 of the molar value. Read-outs that look alike come from different tables or passages of the source.

Experiments:
Assay type in all cases: cell-based
[1] = test system: MV-4-11 cells; experiment: Effect of the compound on proliferation of MV-4-11 cells (MTS); settings: Homo sapiens
Experimental: MV-4-11 cells were cultured with IMDM plus 10% fetal bovine serum and collected. The cell concentration was diluted according to the action time of 7 days, and 180 ul of cell suspension was added to each well of a 96-well cell plate to make the cell count to be 2000. 20 ul of DMSO with a final concentration of 0.2% was added to the control cell wells. The compound was diluted 5-fold with the 10 mM stock solution, and 20 ul was also added to the compound cell wells (the final concentration of DMSO was 0.2%). The cells were placed in a 37° C., 5% CO2 incubator and incubated for 7 days. After preparing the reaction solution according to the MTS kit (Promega, G5430), 20 μL was added to each well, incubated in a 37° C., 5% CO2 incubator for 3-4 h. Read the 490 nm absorbance value with a microtiter plate, and used the 690 nm absorbance value as the background value and OD490-OD690 as the final initial data. The formula for calculating the inhibition rate of the compound was: inhibition rate=(OD DMSO-ODcompound)/(ODDMSO-Oblank)×100%. The compound's proliferation inhibition IC50 was fitted by Graph Pad Prism 5.0. The experiment was repeated three times, and three parallel experiments were used to calculate the average and standard deviation each time. The cell viability test results were shown in Table 3: A means cell viability IC50<1 μM, B means cell viability 1 μM≤IC50≤20 μM, C means cell viability IC50>20 μM.

[2] = test system: Mino cells; experiment: Effect of the compound on the proliferation of Mino cells (MTS); settings: Homo sapiens, 72 h, 3 days, read-out: Inhibitory activity (IC50)
Experimental: Mino cells were cultured with 1640 plus […] and collected. The cell concentration was diluted according to the action time of 3 days, and 90 ul cell suspension was added to each well of the 96-well cell plate to make the cell count to be 8000. 10 ul of DMSO with a final concentration of 0.2% was added to the control cell wells. The compound was diluted 5-fold with the 10 mM stock solution, and 10 ul was also added to the compound cell wells (the final concentration of DMSO was 0.2%). The cells were placed in a 37° C., […] incubator and incubated for 3 days. After preparing the reaction solution according to the MTS kit (Promega, G5430), 20 μL was added to each well, incubated in a 37° C., 5% CO2 incubator for 3-4 h. Read the 490 nm absorbance value with a microtiter plate, and used the 690 nm absorbance value as the background value and OD490-OD690 as the final initial data. The formula for calculating the inhibition rate of the compound was: inhibition rate=(OD DMSO-ODcompound)/(ODDMSO-Oblank)×100%. The compound's proliferation inhibition IC50 was fitted by Graph Pad Prism 5.0. The experiment was repeated three times, and three parallel experiments were used to calculate the average and standard deviation each time.

[3] = test system: MM.1S cells; experiment: Effect of the compound on the proliferation of MM.1S cells (MTS); settings: Homo sapiens, MM1.S, 168 h, 7 days, read-out: Cell inhibitory activity (IC50)
In short: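 In 1640 medium + 10% FBS, 20,000 cells per well were treated with 5-fold compound dilutions at 0.2% DMSO for 7 days at 37° C., 5% CO2. MTS was read after 3–4 h as OD490−OD690, inhibition was calculated against DMSO and blank wells, and IC50 was fitted; three independent experiments were run.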

[4] = test system: triple negative breast cancer cells MDA-MB-231; experiment: Proliferation of other tumor cells, MDA-MB-231 (WST-8); settings: Homo sapiens, 96 h, MDA-MB-231 cells, 4 days, read-out: Inhibitory activity on proliferation, MDA-MB-231 (IC50)
Experimental: (§1) The human triple negative breast cancer cells MDA-MB-468 and MDA-MB-231 used in this experiment were purchased from the Shanghai Cell Bank, in which L-15 medium added with 10% fetal bovine serum (FBS) and 1% double antibody was used. At 37° C., MDA-MB-468 and MDA-MB-231 cells were cultured in an incubator without CO2. Colorectal cancer cells HCT-116 were cultured in McCOY's 5A medium with 1% double antibody and 10% fetal bovine serum (FBS); prostate cancer cells DU145 were cultured in MEM medium with 1% double antibody and 10% fetal bovine serum (FBS); prostate cancer cells PC-3 were cultured in F-12 K medium with 1% double antibody and 10% fetal bovine serum (FBS); grew at 37° C., 5% CO2.
(§2) In the cell activity test experiment, 90 μL cell suspension with appropriate concentration was added to a 96-well cell culture plate according to the cell growth, each compound to be tested was gradient diluted with the corresponding medium, 10 μL diluted compound was added to 90 μL cells, and then incubated at 37° C. for 4 days. Cell proliferation was analyzed by WST-8, which could be reduced by lactate dehydrogenase in the cells to a yellow formazan. 10 μL of WST-8 reagent (DOJINDO) was added to the cells and reacted for more than 1 hour at 37° C., DMSO-treated cells were used as […]. The absorption value of 490 nm was read by enzyme-labeled plate, and the absorption value of 690 nm was taken as the background value, and OD490-OD690 was taken as the final original data, and the data was processed by GraphPad Prism6 software. The formula for calculating the inhibition rate of the compound was: inhibition rate=(ODDMSO−ODcompound)/(ODDMSO−Oblank)×100%. The compound's proliferation inhibition IC50 was fitted by Graph Pad Prism 5.0. The experiment was repeated three times, and three parallel experiments were used to calculate the average and standard deviation each time. The cell viability test results were shown in Table 4: A means cell viability IC50<1 μM, B means cell viability 1 μM≤IC50≤20 μM, C means cell viability IC50>20 μM, NT means not tested.

[5] = test system: prostate cancer cells PC-3; experiment: Proliferation of other tumor cells, PC-3 (WST-8); settings: Homo sapiens, 96 h, PC-3 cells, 4 days, read-out: Inhibitory activity on proliferation, PC-3 (IC50)
Experimental: as §1, §2

[6] = test system: prostate cancer cells DU145; experiment: Proliferation of other tumor cells, DU145 (WST-8); settings: Homo sapiens, DU-145, 96 h, 4 days, read-out: Inhibitory activity on proliferation, DU145 (IC50)
Experimental: as §1, §2

[7] = test system: Colorectal cancer cells HCT-116; experiment: Proliferation of other tumor cells, HCT-116 (WST-8); settings: Homo sapiens, 96 h, HCT-116 cells, 4 days, read-out: Inhibitory activity on proliferation, HCT-116 (IC50)
Experimental: as §1, §2

[8] = MV4-11, 168 h, 7 days, MTS, read-out: Inhibitory activity (IC50)
[9] = MV4-11, read-out: cytostatic activity (IC50) on MV-4-11 cells

| pIC50 [1, 8] | pIC50 [1, 9] | pIC50 [3] | pIC50 [4] | pIC50 [5] | pIC50 [6] | pIC50 [7] | Structure (SMILES) | pIC50 [2] |
| --- | --- | --- | --- | --- | --- | --- | --- | --- |
| > 6.00 |  | > 6.82 |  |  |  |  | O=C1CCC(N2Cc3c(OCc4cn(-c5cccc(Cl)c5Cl)nn4)cccc3C2=O)C(=O)N1 (centres unmarked) [Compound 18, 3-(4-((1-(2,3-dichlorophenyl)-1H-1,2,3-triazol-4-)methoxy)-1-oxoisoindolin-2-) piperidine-2,6-dione] | > 6.82 |
| > 6.00 |  | > 6.82 |  |  |  |  | O=C1CCC(N2Cc3c(OCc4cn(-c5ccc6[nH]ccc6c5)nn4)cccc3C2=O)C(=O)N1 (centres unmarked) [Compound 26, 3-(4-((1-(1H-indol-5-)-1H-1,2,3-triazol-4-)methoxy)-1-oxoisoindolin-2-) piperidine-2,6-dione] | > 6.82 |
| > 6.00 |  | > 6.82 |  |  |  |  | COCCn1ccc2cc(-n3cc(COc4cccc5c4CN(C4CCC(=O)NC4=O)C5=O)nn3)ccc21 (centres unmarked) [Compound 28] | > 6.82 |
| < 4.70 | < 4.70 | > 6.82 |  |  |  |  | Nc1cccc2c1C(=O)N(C1CCC(=O)NC1=O)C2=O (centres unmarked) [Pomalidomide, pomalidomide, reference compound] | 4.70 to 6.82 |

More lines, now with the values behind:

| Structure (SMILES) | pIC50 [1, 8] | pIC50 [1, 9] | pIC50 [3] | pIC50 [4] | pIC50 [5] | pIC50 [6] | pIC50 [7] | pIC50 [2] |
| --- | --- | --- | --- | --- | --- | --- | --- | --- |
| O=C1CCC(N2Cc3c(OCc4ccc(CN5CCOCC5)cc4)cccc3C2=O)C(=O)N1 (centres unmarked) [CC-220, reference compound] | < 4.70 | < 4.70 | > 6.82 |  |  |  |  | > 6.82 |
| O=C1CCC(N2Cc3c(OCc4cn(-c5cccc(OC(F)(F)F)c5)nn4)cccc3C2=O)C(=O)N1 (centres unmarked) [Compound 20, 3-(1-oxo-4-((1-(3-(trifluoromethoxy)phenyl)-1H-1,2,3-triazol-4-)methoxy)isoindolin-2-) piperidine-2,6-dione] | 4.70 to 6.00 |  | > 6.82 |  |  |  |  | > 6.82 |
| O=C1CCC(N2Cc3c(OCc4cn(-c5ccc(OC6CCOCC6)cc5)nn4)cccc3C2=O)C(=O)N1 (centres unmarked) [Compound 30, 3-(1-oxo-4-((1-(4-((2H-tetrahydropyran-4-)oxy)phenyl)-1H-1,2,3-triazol-4-)methoxy)isoindolin-2-)piperidine-2,6-dione] |  |  | > 6.82 | 4.70 to 6.00 | 4.70 to 6.00 | 4.70 to 6.00 | 4.70 to 6.00 | > 6.82 |
| O=C1CCC(N2Cc3c(OCc4cnc(-c5ccc(OC(F)(F)F)cc5)o4)cccc3C2=O)C(=O)N1 (centres unmarked) [Compound 45, 3-(1-oxo-4-((2-(4-trifluoromethoxyphenyl)oxazol-5-)methoxy)isoindolin-2-) piperidine-2,6-dione] |  |  | > 6.82 | < 4.70 | 4.70 to 6.00 | 4.70 to 6.00 | 4.70 to 6.00 | > 6.82 |
| O=C1CCC(N2Cc3c(OC[C@@H]4CCN(c5ccc(OC(F)(F)F)cc5)C4)cccc3C2=O)C(=O)N1 (stereo partly drawn) [Compound 70, 3-(1-oxo-4-(((R)-1-(4-(trifluoromethoxy)phenyl)pyrrolin-3-)methoxy)isoindolin-2-) piperidine-2,6-dione] | 4.70 to 6.00 |  | > 6.82 |  |  |  |  | 4.70 to 6.82 |
| O=C1CCC(N2Cc3c(OC[C@H]4CCN(c5ccc(OC(F)(F)F)cc5)C4)cccc3C2=O)C(=O)N1 (stereo partly drawn) [Compound 71, 3-(1-oxo-4-(((S)-1-(4-(trifluoromethoxy)phenyl)pyrrolin-3-)methoxy)isoindolin-2-) piperidine-2,6-dione] | 4.70 to 6.00 |  | 4.70 to 6.82 |  |  |  |  | 4.70 to 6.82 |
